Source: ChEMBL document CHEMBL5725732, “Aglaroxin C and derivatives as HCV entry inhibitors” (2018)

Assay: Cell Surface Biotinylation Assay: Huh7.5.1 cells from four 150 mm plates were treated with DMSO, Roc-A (20 nM), or infected by HCVcc. 48 h post-transfection, cells were washed three times with ice-cold PBS and resuspended in PBS at a density of 25×10^6 cells/ml. Freshly prepared Sulfo-NHS-SS-biotin (Pierce) was added to the cells (final concentration […]) and allowed to incubate at 4° C. for 30 min. Cells were then washed three times with ice-cold PBS. 25 mM Tris (pH 8.0) was added in the initial wash to quench any non-reacted biotin reagent. Following cell lysis in RIPA buffer (50 mM Tris-HCl [pH 7.5], 150 mM NaCl, 1% NP-40, 0.25% sodium deoxycholate, 1 mM EDTA, 2 mM Na3VO4 and Pierce protease inhibitor cocktail), lysates were cleared by centrifugation at 13,000×g for 15 min at 4° C. The cleared lysates were used for immunoprecipitation using a 1:1 mixture of Streptavidin beads (Pierce). Beads were washed three times with RIPA buffer, and bound proteins were eluted by boiling the samples in SDS-PAGE sample buffer and then resolved on 9% SDS-PAGE. Biotinylated proteins were detected by anti-PHB1 and anti-PHB2 antibodies.
Conditions: Huh-7.5.1

SMILES: COc1ccc([C@@]23Oc4cc(OC)cc(OC)c4[C@]2(O)c2nc4n(c(=O)c2[C@H]3c2ccccc2)CCC4)cc1 (racemic)
- EC50: 100 nM
